Measurements published in US20140045895A1, “PHARMACEUTICAL DEPOT FOR 5-FLUORO-2-[[(1S)-1-(5-FLUORO-2-PYRIDYL)ETHYL]AMINO]-6-[(5-ISOPROPOXY-1H-PYRAZOL-3-YL)AMINO]PYRIDINE-3-CARBONITRILE” (ASTRAZENECA AB, priority 2010, published 2014).

Assays:
[1] = Plasma levels after intra-articular injection of 50/50 PLGA formulation; type: in vivo, rats; conditions: 200 μg dose in 50/50 PLGA IA formulation into knees, rat plasma
Description: Animals were anaesthetised with isofluorane and 30 μl PLGA microspheres containing 200 μg injected into each knee using a Hamilton syringe and 25G needle. The vial of microspheres was vortexed before injection of each animal to try and obtain a homogeneous injection solution. Animals were recovered and returned to their home cages until plasma sampling.
Animals were warmed in a hot box for 10 minutes at 42° C. before being placed in a restrainer and 200 μl blood sampled from the lateral tail vein into a Sarsted Multivette 600 Lithium Heparin tube (cat no 15.1673) attached to a 21G needle. Tubes were placed on a roller until centrifugation at 13000 rpm for 5 minutes to sediment red blood cells. Plasma was decanted and stored at −20° C. until analysis by DMPK. Samples were taken 1 h, 3 h, 6 h, 24 h, 48 h, 96 h and 168 h post-injection.
The levels shown are for a 200 μg dose of compound.

[2] = Hydrolytic stability of PA in the acidic microclimate created by polymer degradation; type: physicochemical

Structure (SMILES): CC(C)Oc1cc(Nc2nc(N[C@@H](C)c3ccc(F)cn3)c(C#N)cc2F)n[nH]1 [PA, 5-fluoro-2-[[(1S)-1-(5-fluoro-2-pyridyl)ethyl]amino]-6-[(5-isopropoxy-1H-pyrazol-3-yl)amino]pyridine-3-carbonitrile]
- period over which release of compound was seen (plasma) [1]: 168 h
- hydrolytic stability in acidic microclimate [2]: hydrolytically stable
